Test results from patent US8093286B2, “Methods for treatment with bucindolol based on genetic targeting” (The Regents of the University of Colorado, a body corporate, priority 2004, dated 2012).
“Also recorded” adds a separate entry of the source.

Key:
[1] = test system: β1-Arg389 transgenic mice (ventricular expression of human β1AR); assay: chronic β-blockade in transgenic mice, Western blots of ventricular signaling and Ca2+-handling proteins; type: in vivo, mouse; conditions: 0.5 mg/ml in drinking water for 6 months; ANOVA P<0.002
Method: (§1) Using the α-myosin heavy chain promoter, transgenic mice with targeted ventricular expression of the human β1AR (Arg389 or Gly389 forms) were utilized to ascertain allele-specific responses to chronic administration of the […] propranolol. […] The generation of these mice and their partial characterization has recently been reported in detail elsewhere (Perez et al, 2003). For the current studies, 3-month-old mice of both genotypes, as well as nontransgenic mice, were treated with propranolol (0.5 mg/ml) in their drinking water, or water without propranolol (control) continuously for 6 months. Hearts were then removed and ventricular protein extracts prepared. These were subjected to Western blotting to ascertain expression of the following proteins using methods previously described (Perez et al., 2003): Gαs, Gαi2, G-protein coupled receptor kinase-2 (GRK2), adenylyl cyclase type 5 (AC5), total phospholamban (T-PLN), phosphorylated phospholamban (P-PLN) and sarcoplasmic endoplasmic reticulum calcium ATPase-2A (SERCA). Treatment effect was assessed by comparing expression of the proteins of untreated and propranolol treated mice, within genotype, by ANOVA. The study was approved by the University of Cincinnati Animal Use and Care Committee.

[2] = test system: β1-Gly389 transgenic mice (ventricular expression of human β1AR); assay: as above; type: in vivo, mouse; conditions: 0.5 mg/ml in drinking water for 6 months; P=0.67
Method: as §1

[3] = test system: failing human right ventricular trabeculae; assay: contractile response of isolated right ventricular trabeculae from failing human hearts; conditions: for maximal isoproterenol-stimulated systolic tension: failing hearts
Method: (§2) Nonfailing hearts were obtained from local potential organ donors whose hearts were not transplanted because of physical or ABO blood type incompatibility. Failing hearts were from patients with end-stage heart failure due to ischemic or non-ischemic dilated cardiomyopathies who underwent cardiac transplantation. The demographic characteristics of the hearts are provided in Results. The contractile response of isolated, field stimulated, human trabeculae was assessed as previously described {1755; a-c}. Trabeculae of uniform size (1 to 2×6 to 8 mm) were mounted in 80 ml muscle bath chambers in Tyrode's solution at pH 7.45 bubbled with 95% O2-5% CO2 at 36^0. After equilibration, a tension of 75% of Lmax was applied to each individual trabeculum. Field-stimulation by a 5-ms pulse at 10% above threshold was then applied, and after equilibration full dose-response curves to isoproterenol, bucindolol or xamoterol were performed using the indicated concentrations and application of increasing doses every 5 minutes. In experiments in which forskolin was used to enhance signal transduction {e,f}, 10^−6 M of this adenylyl cyclase activator was applied to the tissue baths 15-20 minutes prior to the performance of dose-response curves, and allowed to achieve stability of tension response. Systolic tension at each dose was calculated as the stimulated tension in mN/mm^2 minus baseline tension. The maximum tension, concentration of isoproterenol that produced 50% of the maximum developed tension (EC50) and curve slope were computed by nonlinear repeated measures analysis of covariance. […] Statistical methods were employed as described in Examples 3 and 4.

norepinephrine = conditions: 3 months, MOXCON Trial; cited from earlier work
[4] = test system: nonfailing human right ventricular trabeculae; assay: contractile response of isolated right ventricular trabeculae from nonfailing human hearts
Method: as §2

heart failure patients = conditions: cited from earlier work
[5] = U.S. enrolled patients in MERIT-HF

CC(C)NCC(O)COc1cccc2ccccc12 (stereo not drawn) [propranolol]
treatment effect on expression of cardiac signaling and Ca2+-handling proteins [1]: overall treatment response | treatment effect on expression of cardiac signaling and Ca2+-handling proteins [2]: no effect

COc1ccccc1OCCNCC(O)COc1cccc2[nH]c3ccccc3c12 (stereo not drawn) [carvedilol]
positive inotropic signal compared with bucindolol ([3]; failing heart, forskolin pretreated preparations): more of a positive inotropic signal than bucindolol

COc1nc(C)nc(Cl)c1N=C1NCCN1 [moxonidine]
relative reduction in norepinephrine (norepinephrine): 24%

CC(C)NCC(O)c1ccc(O)c(O)c1 (stereo not drawn) [isoproterenol]
maximal isoproterenol-stimulated systolic tension ([4]; β1-Arg389 homozygotes): 13±2.5 mN/mm^2 | maximal isoproterenol-stimulated systolic tension ([4]; β1-Gly389 carriers): 5.2±1.4 mN/mm^2 | maximal isoproterenol-stimulated systolic tension ([3]; β1-Arg389 homozygotes): 9.4±1.9 mN/mm^2 | maximal isoproterenol-stimulated systolic tension ([3]; β1-Gly389 carriers): 2.4±0.60 mN/mm^2

COCCc1ccc(OCC(O)CNC(C)C)cc1.COCCc1ccc(OCC(O)CNC(C)C)cc1.O=C(O)CCC(=O)O (stereo not drawn) [metoprolol CR/XL, metoprolol succinate CR/XL]
Mortality + HF Hospitalization hazard ratio vs placebo (heart failure patients; MERIT-HF US Pts (n = 1071/3991)): ~0.84; 200 Ev | mortality plus heart failure hospitalization hazard ratio vs placebo (heart failure patients; MERIT-HF entire cohort (UCL 0.80)): 0.69 | mortality increase (heart failure patients; [5]): 5% | mortality+HF hospitalization decrease (heart failure patients; [5]): 16%

O=C(NCCNCC(O)COc1ccc(O)cc1)N1CCOCC1 (stereo not drawn) [xamoterol]
inotropic effect on systolic force (dose-response curve slope) ([3]; β1AR Arg/Arg, forskolin pretreatment): increase in force | inotropic effect on systolic force (dose-response curve slope) ([3]; β1AR Arg/Arg, forskolin pretreatment, listed as Xamoterol): positive inotropic effect | inotropic effect on systolic force (dose-response curve slope) ([3]; β1AR Arg/Arg, without forskolin): increase in force; also recorded: positive inotropic effect | inotropic effect on systolic force (dose-response curve slope) ([3]; β1AR Gly carriers, forskolin pretreatment): increase in force | inotropic effect on systolic force (dose-response curve slope) ([3]; β1AR Gly carriers, forskolin pretreatment, listed as Xamoterol): positive inotropic effect | inotropic effect on systolic force (dose-response curve slope) ([3]; β1AR Gly carriers, without forskolin): negative inotropic effect
